{"source": "patent US9732119B2", "about": "“Immunomodulators” (BRISTOL-MYERS SQUIBB COMPANY, priority 2014, dated 2017)", "note": "Positions of bridges follow the written chain, without caps; N, C: chain ends. Non-standard residues stand in square brackets, D forms with d. Residues, ends and D or L forms follow the SMILES beside them. Trp(1-CH2COOH) = N[C@@H](Cc1cn(CC(=O)O)c2ccccc12)C(=O)O; Phe(4-Cl) = N[C@@H](Cc1ccc(Cl)cc1)C(=O)O; Phe(4-Me) = Cc1ccc(C[C@H](N)C(=O)O)cc1; Hyp = O=C(O)[C@@H]1C[C@@H](O)CN1; Aad = N[C@@H](CCCC(=O)O)C(=O)O; NMeNle = CCCC[C@H](NC)C(=O)O; dOrn = NCCC[C@@H](N)C(=O)O; Pip = O=C(O)[C@@H]1CCCCN1; NMeA = CN[C@@H](C)C(=O)O; Dab = NCC[C@H](N)C(=O)O; Dap = NC[C@H](N)C(=O)O; AEA = NCCOCC(=O)O; Ava = NCCCCC(=O)O"}
{"target": "T1, PD-1-Ig binding to PD-L1-TVMV-His (PD-L1-His) (Homo sapiens, UniProt Q9NZQ7)", "T1 construct": "hPDL1(19-239)-TVMV-His; made in house; host or cells: HEK293T cells", "T1 sequence (Q9NZQ7 with tags, fused parts or gaps)": "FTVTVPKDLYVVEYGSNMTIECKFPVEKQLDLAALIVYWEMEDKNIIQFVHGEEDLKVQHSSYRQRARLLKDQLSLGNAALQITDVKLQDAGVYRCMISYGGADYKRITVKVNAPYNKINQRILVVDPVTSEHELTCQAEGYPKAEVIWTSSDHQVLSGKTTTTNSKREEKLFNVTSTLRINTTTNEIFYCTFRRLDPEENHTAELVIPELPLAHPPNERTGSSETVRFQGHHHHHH", "assay": "PD-1/PD-L1 Homogenous Time-Resolved Fluorescence (HTRF) binding assay", "conditions": "PD-1-Ig (20 nM) / PD-L1-His (10 nM); numeric values", "outline": "(§1)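 HTRF competition: compound pre-incubated 15 min with PD-L1-His (10 nM final), then PD-1-Ig (20 nM final) added for 15 min in dPBS, 0.1% BSA, 0.05% Tween-20. Detection with Eu-cryptate anti-Ig (1 nM) and APC anti-His (20 nM) antibodies.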", "units": {"IC50": "nM"}}
{"smiles": "CCCC[C@H]1C(=O)N(C)[C@@H](CCCC)C(=O)N[C@@H](CC(C)C)C(=O)N[C@H](C(=O)NCC(N)=O)CNCC(=O)N[C@@H](Cc2ccc(F)cc2)C(=O)N(C)[C@@H](C)C(=O)N[C@@H](CC(=O)O)C(=O)N2CCC[C@H]2C(=O)N[C@@H](CCC(N)=O)C(=O)N[C@@H](CC(=O)O)C(=O)N2C[C@H](O)C[C@H]2C(=O)N[C@@H](Cc2c[nH]c3ccccc23)C(=O)N[C@@H](CC(N)=O)C(=O)N[C@@H](Cc2cn(CC(=O)O)c3ccccc23)C(=O)N1C", "note": "[Example 9015]", "IC50": 15}
{"target": "T1, PD-1-Ig binding to PD-L1-TVMV-His (PD-L1-His)", "assay": "PD-1/PD-L1 Homogenous Time-Resolved Fluorescence (HTRF) binding assay", "conditions": "PD-1-Ig (20 nM) / PD-L1-His (10 nM); range classes", "outline": "as §1", "units": {"IC50": "nM"}}
{"smiles": "CCCC[C@H]1C(=O)N(C)[C@@H](CCCC)C(=O)N[C@@H](CCC(=O)O)C(=O)N[C@H](C(=O)NCC(N)=O)CNCC(=O)N[C@@H](Cc2ccc(O)cc2)C(=O)N(C)[C@@H](C)C(=O)N[C@@H](CC(N)=O)C(=O)N2CCC[C@H]2C(=O)N[C@@H](CCC(N)=O)C(=O)N[C@@H](CC(C)C)C(=O)N2C[C@H](O)C[C@H]2C(=O)N[C@@H](Cc2c[nH]c3ccccc23)C(=O)N[C@@H](CC(N)=O)C(=O)N[C@@H](Cc2cn(CC(=O)O)c3ccccc23)C(=O)N1C", "note": "[Example 9018]", "IC50": "1 to 9.9"}
{"smiles": "CCCC[C@H]1C(=O)N(C)[C@@H](CCCC)C(=O)N[C@@H](CC(C)C)C(=O)N[C@H](C(=O)NCC(N)=O)CCCNCC(=O)N[C@@H](Cc2ccc(O)cc2)C(=O)N(C)[C@@H](C)C(=O)N[C@@H](CC(N)=O)C(=O)N2CCC[C@H]2C(=O)N[C@@H](Cc2cnc[nH]2)C(=O)N[C@@H](CC(C)C)C(=O)N2C[C@H](O)C[C@H]2C(=O)N[C@@H](Cc2c[nH]c3ccccc23)C(=O)NCC(=O)N[C@@H](Cc2c[nH]c3ccccc23)C(=O)N1C", "note": "[Example 10028]", "IC50": "100 to 10000"}
{"smiles": "CCCC[C@H]1C(=O)N(C)[C@@H](CCCC)C(=O)N[C@@H](CC(C)C)C(=O)NCCOCC(=O)N[C@@H](Cc2ccc(O)cc2)C(=O)N(C)[C@@H](C)C(=O)N[C@@H](CC(N)=O)C(=O)N2CCC[C@H]2C(=O)N[C@@H](CN)C(=O)N[C@@H](CC(C)C)C(=O)N2C[C@H](O)C[C@H]2C(=O)N[C@@H](Cc2c[nH]c3ccccc23)C(=O)N[C@@H](CCN)C(=O)N[C@@H](Cc2c[nH]c3ccccc23)C(=O)N1C", "note": "[Example 10501] (cyclo([AEA]Y[NMeA]NP[Dap]L[Hyp]W[Dab]W[NMeNle][NMeNle]L))", "IC50": "1 to 9.9"}
{"smiles": "CCCC[C@H]1C(=O)N(C)[C@@H](CCCC)C(=O)N[C@@H](CC(C)C)C(=O)N[C@H](C(=O)NCC(N)=O)CNCC(=O)N[C@@H](Cc2ccc(F)cc2)C(=O)N(C)[C@@H](C)C(=O)N[C@@H](CC(N)=O)C(=O)N2CCC[C@H]2C(=O)N[C@@H](CCC(N)=O)C(=O)N[C@@H](CC(=O)O)C(=O)N2C[C@H](O)C[C@H]2C(=O)N[C@@H](Cc2c[nH]c3ccccc23)C(=O)N[C@@H](CC(N)=O)C(=O)N[C@@H](Cc2cn(CC(=O)O)c3ccccc23)C(=O)N1C", "note": "[Example 9010]", "IC50": "10 to 99"}
{"smiles": "CCCC[C@H]1C(=O)N(C)[C@@H](CCCC)C(=O)N[C@@H](CC(C)C)C(=O)N[C@H](C(N)=O)CNCC(=O)N[C@@H](Cc2ccc(O)cc2)C(=O)N2CCCC[C@H]2C(=O)N[C@@H](CC(N)=O)C(=O)N2CCC[C@H]2C(=O)N[C@@H](CCC(N)=O)C(=O)N[C@@H](CC(C)C)C(=O)N2C[C@H](O)C[C@H]2C(=O)N[C@@H](Cc2c[nH]c3ccccc23)C(=O)N[C@@H](CC(N)=O)C(=O)N[C@@H](Cc2cn(CC(=O)O)c3ccccc23)C(=O)N1C", "note": "[Example 9026]", "IC50": "1 to 9.9"}
{"smiles": "CCCC[C@H]1C(=O)N(C)[C@@H](CCCC)C(=O)N[C@@H](CC(C)C)C(=O)N[C@H](C(N)=O)CCCC(=O)N[C@@H](Cc2ccc(C)cc2)C(=O)N2CCCC[C@H]2C(=O)N[C@@H](CC(=O)O)C(=O)N2CCC[C@H]2C(=O)N[C@@H](CN)C(=O)N[C@@H](CC(C)C)C(=O)N2C[C@H](O)C[C@H]2C(=O)N[C@@H](Cc2c[nH]c3ccccc23)C(=O)N[C@@H](CCN)C(=O)N[C@@H](Cc2cn(CC(=O)O)c3ccccc23)C(=O)N1C", "note": "[Example 10553] ([Phe(4-Me)][Pip]DP[Dap]L[Hyp]W[Dab][Trp(1-CH2COOH)][NMeNle][NMeNle]L[Aad]-NH2; lactam N-14)", "IC50": "10 to 99"}
{"smiles": "CCCC[C@H]1C(=O)N(C)[C@@H](CCCC)C(=O)N[C@@H](CC(C)C)C(=O)N[C@H](C(=O)NCC(N)=O)CNCC(=O)N[C@@H](Cc2ccc(O)cc2)C(=O)N(C)[C@@H](C)C(=O)N[C@@H](CC(N)=O)C(=O)N2CCC[C@H]2C(=O)N[C@@H](CCC(N)=O)C(=O)N[C@@H](CC(=O)O)C(=O)N2C[C@H](O)C[C@H]2C(=O)N[C@@H](Cc2c[nH]c3ccccc23)C(=O)N[C@@H](CC(N)=O)C(=O)N[C@@H](Cc2cn(CC(=O)O)c3ccccc23)C(=O)N1C", "note": "[Example 9006]", "IC50": "1 to 9.9"}
{"smiles": "CCCC[C@H]1C(=O)N(C)[C@@H](CCCC)C(=O)N[C@@H](CC(C)C)C(=O)NCCCCC(=O)N[C@@H](Cc2ccc(O)cc2)C(=O)N(C)[C@@H](C)C(=O)N[C@@H](CC(N)=O)C(=O)N2CCC[C@H]2C(=O)N[C@@H](CN)C(=O)N[C@@H](CCC(=O)O)C(=O)N2C[C@H](O)C[C@H]2C(=O)N[C@@H](Cc2c[nH]c3ccccc23)C(=O)N[C@@H](CCN)C(=O)N[C@@H](Cc2cn(CC(=O)O)c3ccccc23)C(=O)N1C", "note": "[Example 10506] (cyclo([Ava]Y[NMeA]NP[Dap]E[Hyp]W[Dab][Trp(1-CH2COOH)][NMeNle][NMeNle]L))", "IC50": "1 to 9.9"}
{"smiles": "CCCC[C@H]1C(=O)N(C)[C@@H](CCCC)C(=O)N[C@@H](CC(C)C)C(=O)N[C@H](C(=O)NCC(N)=O)CNCC(=O)N[C@@H](Cc2ccc(O)cc2)C(=O)N(C)[C@@H](C)C(=O)N[C@@H](CC(=O)O)C(=O)N2CCC[C@H]2C(=O)N[C@@H](CCC(N)=O)C(=O)N[C@@H](CC(C)C)C(=O)N2C[C@H](O)C[C@H]2C(=O)N[C@@H](Cc2c[nH]c3ccccc23)C(=O)N[C@@H](CC(N)=O)C(=O)N[C@@H](Cc2cn(CC(=O)O)c3ccccc23)C(=O)N1C", "note": "[Example 9012]", "IC50": "10 to 99"}
{"smiles": "CCCC[C@H]1C(=O)N(C)[C@@H](CCCC)C(=O)N[C@@H](CCC(=O)O)C(=O)N[C@H](C(N)=O)CCCC(=O)N[C@@H](Cc2ccc(Cl)cc2)C(=O)N2CCCC[C@H]2C(=O)N[C@@H](CC(N)=O)C(=O)N2CCC[C@H]2C(=O)N[C@@H](CN)C(=O)N[C@@H](CC(C)C)C(=O)N2C[C@H](O)C[C@H]2C(=O)N[C@@H](Cc2c[nH]c3ccccc23)C(=O)N[C@@H](CCN)C(=O)N[C@@H](Cc2cn(CC(=O)O)c3ccccc23)C(=O)N1C", "note": "[Example 10557] ([Phe(4-Cl)][Pip]NP[Dap]L[Hyp]W[Dab][Trp(1-CH2COOH)][NMeNle][NMeNle]E[Aad]-NH2; lactam N-14)", "IC50": "1 to 9.9"}
{"smiles": "CCCC[C@H]1C(=O)N(C)[C@@H](CCCC)C(=O)NC(CC(C)C)C(=O)N[C@H](C(=O)NCC(N)=O)CNCC(=O)N[C@@H](Cc2ccc(O)cc2)C(=O)N(C)[C@@H](C)C(=O)N[C@@H](CC(N)=O)C(=O)N2CCC[C@H]2C(=O)N[C@@H](CN)C(=O)N[C@@H](CC(C)C)C(=O)N2C[C@H](O)C[C@H]2C(=O)N[C@@H](Cc2c[nH]c3ccccc23)C(=O)N[C@@H](CCCCN)C(=O)N[C@@H](Cc2cn(CC(=O)O)c3ccccc23)C(=O)N1C", "note": "(some centres unmarked) [Example 1032]", "IC50": "1 to 9.9"}
{"smiles": "CCCC[C@H]1C(=O)N(C)[C@@H](CCCC)C(=O)N[C@@H](C)C(=O)N[C@H](C(=O)NCC(N)=O)CCCNCC(=O)N[C@@H](Cc2ccc(O)cc2)C(=O)N(C)[C@@H](C)C(=O)N[C@@H](CC(=O)O)C(=O)N2CCC[C@H]2C(=O)N[C@@H](Cc2cnc[nH]2)C(=O)N[C@@H](CCC(N)=O)C(=O)N2C[C@H](O)C[C@H]2C(=O)N[C@@H](Cc2c[nH]c3ccccc23)C(=O)N[C@@H](CO)C(=O)N[C@@H](Cc2cn(CC(=O)O)c3ccccc23)C(=O)N1C", "note": "[Example 10016]", "IC50": "1 to 9.9"}
{"smiles": "CCCC[C@H]1C(=O)N(C)[C@@H](CCCC)C(=O)N[C@@H](CC(C)C)C(=O)NCCC[C@@H](N)C(=O)N[C@@H](Cc2ccc(Cl)cc2)C(=O)N2CCCC[C@H]2C(=O)N[C@@H](CC(N)=O)C(=O)N2CCC[C@H]2C(=O)N[C@@H](CN)C(=O)N[C@@H](CCC(=O)O)C(=O)N2C[C@H](O)C[C@H]2C(=O)N[C@@H](Cc2c[nH]c3ccccc23)C(=O)N[C@@H](CCN)C(=O)N[C@@H](Cc2cn(CC(=O)O)c3ccccc23)C(=O)N1C", "note": "[Example 10571] (H-[dOrn][Phe(4-Cl)][Pip]NP[Dap]E[Hyp]W[Dab][Trp(1-CH2COOH)][NMeNle][NMeNle]L; lactam 1-C)", "IC50": "1 to 9.9"}
{"smiles": "CCCC[C@H]1C(=O)N(C)[C@@H](CCCC)C(=O)N[C@@H](CC(C)C)C(=O)NCCOCC(=O)N[C@@H](Cc2ccccc2)C(=O)N(C)[C@@H](C)C(=O)N[C@@H](CC(C)C)C(=O)N2CCC[C@H]2C(=O)NCC(=O)N[C@@H](CC(C)C)C(=O)N2CCC[C@H]2C(=O)N[C@@H](Cc2ccccc2)C(=O)NCC(=O)N[C@@H](Cc2ccccc2)C(=O)N1C", "note": "[Example 10500] (cyclo([AEA]F[NMeA]LPGLPFGF[NMeNle][NMeNle]L))", "IC50": "100 to 10000"}
{"smiles": "CCCC[C@H]1C(=O)N(C)[C@@H](CCCC)C(=O)N[C@@H](CC(C)C)C(=O)N[C@@H](C)C(=O)NCC(=O)N[C@@H](Cc2ccc(O)cc2)C(=O)N(C)[C@@H](C)C(=O)N[C@@H](CC(N)=O)C(=O)N2CCC[C@H]2C(=O)N[C@@H](CN)C(=O)N[C@@H](CC(C)C)C(=O)N2C[C@H](O)C[C@H]2C(=O)N[C@@H](Cc2c[nH]c3ccccc23)C(=O)N[C@@H](CCN)C(=O)N[C@@H](Cc2c[nH]c3ccccc23)C(=O)N1C", "note": "[Example 5006] (cyclo(AGY[NMeA]NP[Dap]L[Hyp]W[Dab]W[NMeNle][NMeNle]L))", "IC50": "10 to 99"}
{"smiles": "CCCC[C@H]1C(=O)N(C)[C@@H](CCCC)C(=O)N[C@@H](C)C(=O)N[C@H](C(=O)NCC(N)=O)CCNCC(=O)N[C@@H](Cc2ccc(O)cc2)C(=O)N(C)[C@@H](C)C(=O)N[C@@H](CC(=O)O)C(=O)N2CCC[C@H]2C(=O)N[C@@H](Cc2cnc[nH]2)C(=O)N[C@@H](CCC(N)=O)C(=O)N2C[C@H](O)C[C@H]2C(=O)N[C@@H](Cc2c[nH]c3ccccc23)C(=O)N[C@@H](CO)C(=O)N[C@@H](Cc2c[nH]c3ccccc23)C(=O)N1C", "note": "[Example 10012]", "IC50": "10 to 99"}
